pIC50: −log10 of the molar value.
System: 885512-296-R-J2-PDC complex spheroid viability
Assay: Anticancer human tumor 885512-296-R-J2-PDC patient-derived breast carcinoma cell line growth inhibition [GQUAD]
Conditions: for pIC50: curve of first compound; for viability, T/C: stronger effect = lower value
How it was run: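 Viability of tumor cells grown as complex spheroids with endothelial and stromal cells, exposed to drug combinations. Top concentration at or near clinical Cmax (else 10 microM), diluted in half-log increments.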

[1] = second compound 0.0316 µM, first compound 0.0316 µM
[2] = second compound 0.0316 µM, first compound 0.1 µM
[3] = second compound 0.0316 µM, first compound 0.316 µM
[4] = second compound 0.0316 µM, first compound 1 µM
[5] = second compound 0.0316 µM, first compound 3.16 µM
[6] = second compound 0.0316 µM, first compound 10 µM
[7] = second compound 0.1 µM, first compound 0.0316 µM
[8] = second compound 0.1 µM, first compound 0.1 µM
[9] = second compound 0.1 µM, first compound 0.316 µM
[10] = second compound 0.1 µM, first compound 1 µM
[11] = second compound 0.1 µM, first compound 3.16 µM
[12] = second compound 0.1 µM, first compound 10 µM
[13] = second compound 0.316 µM, first compound 0.0316 µM
[14] = second compound 0.316 µM, first compound 0.1 µM
[15] = second compound 0.316 µM, first compound 0.316 µM
[16] = second compound 0.316 µM, first compound 1 µM
[17] = second compound 0.316 µM, first compound 3.16 µM
[18] = second compound 0.316 µM, first compound 10 µM
[19] = second compound 1 µM, first compound 0.0316 µM
[20] = second compound 1 µM, first compound 0.1 µM
[21] = second compound 1 µM, first compound 0.316 µM
[22] = second compound 1 µM, first compound 1 µM
[23] = second compound 1 µM, first compound 3.16 µM
[24] = second compound 1 µM, first compound 10 µM
[25] = second compound 3.16 µM, first compound 0.0316 µM
[26] = second compound 3.16 µM, first compound 0.1 µM
[27] = second compound 3.16 µM, first compound 0.316 µM
[28] = second compound 3.16 µM, first compound 1 µM
[29] = second compound 3.16 µM, first compound 3.16 µM
[30] = second compound 3.16 µM, first compound 10 µM
[31] = second compound 10 µM, first compound 0.0316 µM
[32] = second compound 10 µM, first compound 0.1 µM
[33] = second compound 10 µM, first compound 0.316 µM
[34] = second compound 10 µM, first compound 1 µM
[35] = second compound 10 µM, first compound 3.16 µM
[36] = second compound 10 µM, first compound 10 µM
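Also: spheroids exposed to the compounds for one week.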
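For viability, T/C in this document: percent of tumor spheroid viability relative to DMSO vehicle control wells.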

Question: With `CC1COCCN1c1cc(C2(S(C)(=N)=O)CC2)nc(-c2ccnc3[nH]ccc23)n1` (centres undefined) + CN(C)c1ccc(Nc2c3ccc(NC(=O)CCN4CCCC4)cc3nc3cc(NC(=O)CCN4CCCC4)ccc23)cc1 as the molecule, how does the pIC50 (second compound 0.0316 µM) read?
Answer: The pIC50 was 6.10.

Question: And the pIC50 (second compound 0.1 µM)?
Answer: The pIC50 was 6.10.

Question: And the pIC50 (second compound 0.316 µM)?
Answer: Its pIC50 is 6.12.

Question: What about the pIC50 (second compound 1 µM) of the same molecule?
Answer: The pIC50 was 6.14.

Question: What about the pIC50 (second compound 3.16 µM) of the same molecule?
Answer: Its pIC50 is 6.13.

Question: And the pIC50 (second compound 10 µM)?
Answer: The pIC50 was greater than 7.50.

Question: What about the viability, T/C [1] of the same molecule?
Answer: The viability, T/C was 102%.

Question: And the viability, T/C [2]?
Answer: Its viability, T/C is 90.4%.

Question: What about the viability, T/C [3] of the same molecule?
Answer: Its viability, T/C is 93%.

Question: What about the viability, T/C [4] of the same molecule?
Answer: Its viability, T/C is 39.7%.

Question: What about the viability, T/C [5] of the same molecule?
Answer: The viability, T/C was 5.75%.

Question: What about the viability, T/C [6] of the same molecule?
Answer: Its viability, T/C is 3.04%.

Question: What about the viability, T/C [7] of the same molecule?
Answer: The viability, T/C was 104%.

Question: What about the viability, T/C [8] of the same molecule?
Answer: The viability, T/C was 92.5%.

Question: What about the viability, T/C [9] of the same molecule?
Answer: Its viability, T/C is 90.7%.

Question: And the viability, T/C [10]?
Answer: Its viability, T/C is 39.9%.

Question: And the viability, T/C [11]?
Answer: Its viability, T/C is 6.39%.

Question: What about the viability, T/C [12] of the same molecule?
Answer: The viability, T/C was 2.92%.

Question: What about the viability, T/C [13] of the same molecule?
Answer: Its viability, T/C is 110%.

Question: What about the viability, T/C [14] of the same molecule?
Answer: Its viability, T/C is 102%.

Question: What about the viability, T/C [15] of the same molecule?
Answer: The viability, T/C was 87.1%.

Question: What about the viability, T/C [16] of the same molecule?
Answer: The viability, T/C was 39.5%.

Question: What about the viability, T/C [17] of the same molecule?
Answer: Its viability, T/C is 6.6%.

Question: And the viability, T/C [18]?
Answer: The viability, T/C was 4.64%.

Question: What about the viability, T/C [19] of the same molecule?
Answer: Its viability, T/C is 97.3%.

Question: What about the viability, T/C [20] of the same molecule?
Answer: The viability, T/C was 90.8%.

Question: What about the viability, T/C [21] of the same molecule?
Answer: Its viability, T/C is 85.1%.

Question: And the viability, T/C [22]?
Answer: The viability, T/C was 36.9%.

Question: And the viability, T/C [23]?
Answer: Its viability, T/C is 6.12%.

Question: What about the viability, T/C [24] of the same molecule?
Answer: The viability, T/C was 3.44%.

Question: And the viability, T/C [25]?
Answer: The viability, T/C was 96.7%.

Question: And the viability, T/C [26]?
Answer: The viability, T/C was 98.4%.

Question: And the viability, T/C [27]?
Answer: Its viability, T/C is 100%.

Question: And the viability, T/C [28]?
Answer: Its viability, T/C is 33.3%.

Question: And the viability, T/C [29]?
Answer: The viability, T/C was 6.38%.

Question: And the viability, T/C [30]?
Answer: The viability, T/C was 3.89%.

Question: And the viability, T/C [31]?
Answer: Its viability, T/C is 15.1%.

Question: What about the viability, T/C [32] of the same molecule?
Answer: Its viability, T/C is 20.8%.

Question: What about the viability, T/C [33] of the same molecule?
Answer: The viability, T/C was 21.7%.

Question: And the viability, T/C [34]?
Answer: The viability, T/C was 11.7%.

Question: And the viability, T/C [35]?
Answer: The viability, T/C was 7.12%.

Question: What about the viability, T/C [36] of the same molecule?
Answer: The viability, T/C was 4.27%.

Question: With `COc1ccc([C@@H](O)c2cc(-c3ncnc4cc(N5CCOCC5)ccc34)c(F)cc2Cl)nn1` + CN(C)c1ccc(Nc2c3ccc(NC(=O)CCN4CCCC4)cc3nc3cc(NC(=O)CCN4CCCC4)ccc23)cc1 as the molecule, how does the pIC50 (second compound 0.0316 µM) read?
Answer: Its pIC50 is 5.02.

Question: What about the pIC50 (second compound 0.1 µM) of the same molecule?
Answer: The pIC50 was less than 5.00.

Question: What about the pIC50 (second compound 0.316 µM) of the same molecule?
Answer: The pIC50 was less than 5.00.

Question: What about the pIC50 (second compound 1 µM) of the same molecule?
Answer: Its pIC50 is less than 5.00.

Question: What about the pIC50 (second compound 3.16 µM) of the same molecule?
Answer: Its pIC50 is 5.39.

Question: What about the pIC50 (second compound 10 µM) of the same molecule?
Answer: The pIC50 was greater than 7.50.

Question: And the viability, T/C [1]?
Answer: Its viability, T/C is 105%.

Question: And the viability, T/C [2]?
Answer: The viability, T/C was 106%.

Question: And the viability, T/C [3]?
Answer: Its viability, T/C is 104%.

Question: And the viability, T/C [4]?
Answer: The viability, T/C was 103%.

Question: And the viability, T/C [5]?
Answer: The viability, T/C was 83.8%.

Question: What about the viability, T/C [6] of the same molecule?
Answer: The viability, T/C was 48.5%.

Question: What about the viability, T/C [7] of the same molecule?
Answer: Its viability, T/C is 121%.

Question: What about the viability, T/C [8] of the same molecule?
Answer: The viability, T/C was 93.8%.

Question: What about the viability, T/C [9] of the same molecule?
Answer: The viability, T/C was 92.1%.

Question: And the viability, T/C [10]?
Answer: The viability, T/C was 92.7%.

Question: And the viability, T/C [11]?
Answer: The viability, T/C was 74.4%.

Question: What about the viability, T/C [12] of the same molecule?
Answer: The viability, T/C was 53.6%.

Question: And the viability, T/C [13]?
Answer: The viability, T/C was 104%.

Question: And the viability, T/C [14]?
Answer: The viability, T/C was 98.1%.

Question: And the viability, T/C [15]?
Answer: The viability, T/C was 91%.

Question: What about the viability, T/C [16] of the same molecule?
Answer: Its viability, T/C is 86.6%.

Question: What about the viability, T/C [17] of the same molecule?
Answer: Its viability, T/C is 81.6%.

Question: What about the viability, T/C [18] of the same molecule?
Answer: The viability, T/C was 50.1%.

Question: And the viability, T/C [19]?
Answer: The viability, T/C was 93.4%.

Question: And the viability, T/C [20]?
Answer: The viability, T/C was 101%.

Question: And the viability, T/C [21]?
Answer: The viability, T/C was 98.5%.

Question: And the viability, T/C [22]?
Answer: Its viability, T/C is 88.1%.

Question: What about the viability, T/C [23] of the same molecule?
Answer: The viability, T/C was 81.3%.

Question: And the viability, T/C [24]?
Answer: Its viability, T/C is 51.9%.

Question: What about the viability, T/C [25] of the same molecule?
Answer: Its viability, T/C is 94.6%.

Question: What about the viability, T/C [26] of the same molecule?
Answer: Its viability, T/C is 101%.

Question: And the viability, T/C [27]?
Answer: The viability, T/C was 86%.

Question: What about the viability, T/C [28] of the same molecule?
Answer: Its viability, T/C is 63%.

Question: And the viability, T/C [29]?
Answer: The viability, T/C was 60.2%.

Question: What about the viability, T/C [30] of the same molecule?
Answer: The viability, T/C was 34.9%.

Question: And the viability, T/C [31]?
Answer: The viability, T/C was 13.4%.

Question: And the viability, T/C [32]?
Answer: Its viability, T/C is 21.5%.

Question: What about the viability, T/C [33] of the same molecule?
Answer: Its viability, T/C is 19.6%.

Question: And the viability, T/C [34]?
Answer: The viability, T/C was 14.6%.

Question: What about the viability, T/C [35] of the same molecule?
Answer: Its viability, T/C is 10.4%.

Question: And the viability, T/C [36]?
Answer: The viability, T/C was 6.55%.

From PubChem BioAssay AID2060490 (Molecular Pharmacology Branch, DTP, NCI, 2025)
